The NIST ThermoML archive (doi:10.1016/j.jct.2014.05.014)
Numbers after ± are expanded uncertainties.

Assay: cn = amount concentration of the nth substance listed, in mol/dm3
Conditions: 101.3 kPa, Liquid; for electrical conductivity: Alternating current cell with electrodes; for viscosity: Falling or rolling sphere viscometry; for mass density: Vibrating tube method

CC(N)C(=O)[O-].[K+] (stereo not drawn) [potassium DL-alaninate] + O
Conditions	electrical conductivity [S/m]	mass density [kg/m3]	viscosity [mPa·s]
303.15 K, c1 = 0.495	–	1024.1 ± 1.6	–
303.15 K, c1 = 0.514	–	–	0.942 ± 0.02
303.15 K, c1 = 0.526	3.96 ± 0.08	–	–
303.15 K, c1 = 1.009	6.63 ± 0.14	–	–
303.15 K, c1 = 1.014	–	1051.7 ± 1.7	–
303.15 K, c1 = 1.029	–	–	1.118 ± 0.024
303.15 K, c1 = 1.499	8.42 ± 0.17	–	–
303.15 K, c1 = 1.509	–	1078.7 ± 1.8	–
303.15 K, c1 = 1.524	–	–	1.342 ± 0.03
303.15 K, c1 = 1.954	–	1103.2 ± 1.9	–
303.15 K, c1 = 1.999	–	–	1.6 ± 0.037
303.15 K, c1 = 2.018	9.49 ± 0.19	–	–
303.15 K, c1 = 2.501	9.88 ± 0.2	–	–
303.15 K, c1 = 2.507	–	1131.4 ± 2.1	–
303.15 K, c1 = 2.522	–	–	1.964 ± 0.047
303.15 K, c1 = 2.988	–	1155.8 ± 2.2	–
303.15 K, c1 = 3.046	9.87 ± 0.2	–	–
303.15 K, c1 = 3.048	–	–	2.422 ± 0.059
303.15 K, c1 = 3.497	9.58 ± 0.19	–	–
303.15 K, c1 = 3.499	–	1181 ± 2.4	–
308.15 K, c1 = 0.495	–	1022.4 ± 1.6	–
308.15 K, c1 = 0.514	–	–	0.845 ± 0.018
308.15 K, c1 = 0.526	4.34 ± 0.09	–	–
308.15 K, c1 = 1.009	7.25 ± 0.15	–	–
308.15 K, c1 = 1.014	–	1049.8 ± 1.7	–
308.15 K, c1 = 1.029	–	–	1.009 ± 0.022
308.15 K, c1 = 1.499	9.18 ± 0.19	–	–
308.15 K, c1 = 1.509	–	1076.7 ± 1.8	–
308.15 K, c1 = 1.524	–	–	1.203 ± 0.027
308.15 K, c1 = 1.954	–	1101.1 ± 1.9	–
308.15 K, c1 = 1.999	–	–	1.429 ± 0.033
308.15 K, c1 = 2.018	10.4 ± 0.21	–	–
308.15 K, c1 = 2.501	10.8 ± 0.22	–	–
308.15 K, c1 = 2.507	–	1129.2 ± 2.1	–
308.15 K, c1 = 2.522	–	–	1.745 ± 0.042
308.15 K, c1 = 2.988	–	1153.4 ± 2.2	–
308.15 K, c1 = 3.046	10.9 ± 0.22	–	–
308.15 K, c1 = 3.048	–	–	2.135 ± 0.052
308.15 K, c1 = 3.497	10.6 ± 0.21	–	–
308.15 K, c1 = 3.499	–	1178.4 ± 2.4	–
313.15 K, c1 = 0.495	–	1020.5 ± 1.6	–
313.15 K, c1 = 0.514	–	–	0.769 ± 0.017
313.15 K, c1 = 0.526	4.73 ± 0.1	–	–
313.15 K, c1 = 1.009	7.84 ± 0.17	–	–
313.15 K, c1 = 1.014	–	1047.7 ± 1.7	–
313.15 K, c1 = 1.029	–	–	0.909 ± 0.02
313.15 K, c1 = 1.499	9.94 ± 0.2	–	–
313.15 K, c1 = 1.509	–	1074.5 ± 1.8	–
313.15 K, c1 = 1.524	–	–	1.093 ± 0.024
313.15 K, c1 = 1.954	–	1098.8 ± 1.9	–
313.15 K, c1 = 1.999	–	–	1.29 ± 0.03
313.15 K, c1 = 2.018	11.2 ± 0.23	–	–
313.15 K, c1 = 2.501	11.8 ± 0.24	–	–
313.15 K, c1 = 2.507	–	1126.8 ± 2.1	–
313.15 K, c1 = 2.522	–	–	1.569 ± 0.037
313.15 K, c1 = 2.988	–	1150.9 ± 2.2	–
313.15 K, c1 = 3.046	11.8 ± 0.24	–	–
313.15 K, c1 = 3.048	–	–	1.907 ± 0.046
313.15 K, c1 = 3.497	11.6 ± 0.23	–	–
313.15 K, c1 = 3.499	–	1175.8 ± 2.4	–
318.15 K, c1 = 0.495	–	1018.4 ± 1.6	–
318.15 K, c1 = 0.514	–	–	0.705 ± 0.015
318.15 K, c1 = 0.526	5.12 ± 0.11	–	–
318.15 K, c1 = 1.009	8.45 ± 0.18	–	–
318.15 K, c1 = 1.014	–	1045.6 ± 1.7	–
318.15 K, c1 = 1.029	–	–	0.83 ± 0.018
318.15 K, c1 = 1.499	10.7 ± 0.22	–	–
318.15 K, c1 = 1.509	–	1072.3 ± 1.8	–
318.15 K, c1 = 1.524	–	–	1 ± 0.022
318.15 K, c1 = 1.954	–	1096.5 ± 1.9	–
318.15 K, c1 = 1.999	–	–	1.17 ± 0.027
318.15 K, c1 = 2.018	12.1 ± 0.24	–	–
318.15 K, c1 = 2.501	12.7 ± 0.26	–	–
318.15 K, c1 = 2.507	–	1124.3 ± 2.1	–
318.15 K, c1 = 2.522	–	–	1.426 ± 0.034
318.15 K, c1 = 2.988	–	1148.3 ± 2.2	–
318.15 K, c1 = 3.046	12.8 ± 0.26	–	–
318.15 K, c1 = 3.048	–	–	1.712 ± 0.041
318.15 K, c1 = 3.497	12.6 ± 0.25	–	–
318.15 K, c1 = 3.499	–	1173.1 ± 2.4	–
323.15 K, c1 = 0.514	–	–	0.644 ± 0.014
323.15 K, c1 = 0.526	5.5 ± 0.12	–	–
323.15 K, c1 = 1.009	9.06 ± 0.19	–	–
323.15 K, c1 = 1.029	–	–	0.76 ± 0.017
323.15 K, c1 = 1.499	11.5 ± 0.24	–	–
323.15 K, c1 = 1.524	–	–	0.922 ± 0.02
323.15 K, c1 = 2.018	12.9 ± 0.26	–	–
323.15 K, c1 = 2.501	13.7 ± 0.27	–	–
323.15 K, c1 = 3.046	13.9 ± 0.28	–	–
323.15 K, c1 = 3.497	13.7 ± 0.27	–	–
